Earlier results, collected in patent publication US20150157610A1, “PHARMACEUTICAL COMPOSITION FOR TREATING INFLAMMATORY DISEASE” (OSAKA UNIVERSITY, priority 2012, published 2015).

Tested on: fulminant myocarditis
Conditions: experimental, Non Patent Literature 2 and 3

CCCCCCCCc1ccc(CCC(N)(CO)CO)cc1 [FTY720]
efficacy against fulminant myocarditis: experimentally effective
